Assay results taken from paper PMC6001238, “Iterative Chemical Engineering of Vancomycin Leads to Novel Vancomycin Analogs With a High in Vitro Therapeutic Index” (Frontiers in Microbiology, 2018).
≈ marks a conversion by molar mass, not a printed value.

Legend:
E. faecalis VSE 1 = assay: MIC, broth microdilution, vancomycin-sensitive E. faecalis (VSE 1); assay type: cell-based, Enterococcus faecalis; conditions: for MIC: Enterococcus faecalis VSE 1 (vancomycin-sensitive), read-out: MIC; for MIC-fold improvement vs. vancomycin: VSE 1, ratio of MIC of vancomycin and MIC of analogue
In short: (§1)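 MIC values come from broth microdilution run to CLSI susceptibility-testing standards. Ultrapure water and uninoculated broth served as controls. In one series, vancomycin at a final 10 μM was co-dosed with the analogue or comparator antibiotic.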

E. faecalis VRE 6 = assay: MIC, broth microdilution, vancomycin-resistant E. faecalis VRE 6 (VanA); assay type: cell-based, Enterococcus faecalis; conditions: for MIC: Enterococcus faecalis VRE 6 (vancomycin-resistant), read-out: MIC; for MIC-fold improvement vs. vancomycin: VRE 6, ratio of MIC of vancomycin and MIC of analogue
In short: as §1

E. faecalis VRE 53 = assay: MIC, broth microdilution, vancomycin-resistant E. faecalis VRE 53 (VanA); assay type: cell-based, Enterococcus faecalis; conditions: for MIC: Enterococcus faecalis VRE 53 (vancomycin-resistant), read-out: MIC; for MIC-fold improvement vs. vancomycin: VRE 53, ratio of MIC of vancomycin and MIC of analogue
In short: as §1

E. faecalis VRE 29 = assay: MIC, broth microdilution, vancomycin-resistant E. faecalis VRE 29 (VanA); assay type: cell-based, Enterococcus faecalis; conditions: for MIC: Enterococcus faecalis VRE 29 (vancomycin-resistant), read-out: MIC; for MIC-fold improvement vs. vancomycin: VRE 29, ratio of MIC of vancomycin and MIC of analogue
In short: as §1

E. faecalis VRE 37 = assay: MIC, broth microdilution, vancomycin-resistant E. faecalis VRE 37 (VanA); assay type: cell-based, Enterococcus faecalis; conditions: for MIC: Enterococcus faecalis VRE 37 (vancomycin-resistant), read-out: MIC
In short: as §1

[1] = tested on: Murine leukemia (L1210) cells; assay: Cytostatic activity, L1210 cell proliferation; assay type: cell-based; conditions: mean ± SD of three experiments; highest concentration tested 250 µM; 2 days; read-out: Toxicity (IC50) L1210
In short: (§2)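 Coulter counter cell counts after 37°C culture with compound; IC50 = concentration giving 50% growth inhibition vs negative control. Incubation: L1210 2 d, CEM 3 d, HeLa 4 d. Suspension density before mixing with an equal volume of dilution: 300,000–500,000 cells/mL.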

[2] = tested on: human T-lymphocyte (CEM) cells; assay: Cytostatic activity, CEM cell proliferation; assay type: cell-based; conditions: mean ± SD of three experiments; highest concentration tested 250 µM; 3 days; read-out: Toxicity (IC50) CEM
In short: as §2

[3] = tested on: human cervix carcinoma (HeLa) cells; assay: Cytostatic activity, HeLa cell proliferation; assay type: cell-based; conditions: mean ± SD of three experiments; highest concentration tested 250 µM; 4 days; read-out: Toxicity (IC50) HeLa
In short: as §2

[4] = tested on: L1210, CEM and HeLa cell lines; assay: Cytostatic activity, average or summary over L1210, CEM and HeLa; assay type: cell-based; conditions: average of L1210, CEM and HeLa; read-out: Toxicity (IC50) Average
In short: as §2

[5] = tested on: S. aureus VSSA (ATCC 6538); assay: MIC, broth microdilution, vancomycin-sensitive S. aureus (VSSA/MSSA, ATCC 6538); assay type: cell-based, Staphylococcus aureus; conditions: for MIC: Staphylococcus aureus VSSA, read-out: MIC; for MIC-fold improvement vs. vancomycin: VSSA, ratio of MIC of vancomycin and MIC of analogue
In short: as §1

S. aureus VISA/HIP5827 = assay: MIC, broth microdilution, vancomycin-intermediate S. aureus VISA HIP5827; assay type: cell-based, Staphylococcus aureus; conditions: for MIC: Staphylococcus aureus VISA/HIP5827, read-out: MIC; for MIC-fold improvement vs. vancomycin: VISA/HIP5827, ratio of MIC of vancomycin and MIC of analogue
In short: as §1

S. aureus VRSA = assay: MIC, broth microdilution, vancomycin-resistant S. aureus (VRSA); assay type: cell-based, Staphylococcus aureus; conditions: for MIC: Staphylococcus aureus VRSA, read-out: MIC; for MIC-fold improvement vs. vancomycin: VRSA, ratio of MIC of vancomycin and MIC of analogue
In short: as §1

MRSA KS2 = assay: MIC, broth microdilution, MRSA KS2; assay type: cell-based, Staphylococcus aureus; conditions: for MIC-fold improvement vs. vancomycin: MRSA KS2, ratio of MIC of vancomycin and MIC of analogue; for MIC: Staphylococcus aureus MRSA KS2, read-out: MIC
In short: as §1

MRSA KS6 = assay: MIC, broth microdilution, MRSA KS6; assay type: cell-based, Staphylococcus aureus; conditions: for MIC-fold improvement vs. vancomycin: MRSA KS6, ratio of MIC of vancomycin and MIC of analogue; for MIC: Staphylococcus aureus MRSA KS6, read-out: MIC
In short: as §1

MRSA KS89 = assay: MIC, broth microdilution, MRSA KS89; assay type: cell-based, Staphylococcus aureus; conditions: for MIC-fold improvement vs. vancomycin: MRSA KS8, ratio of MIC of vancomycin and MIC of analogue; for MIC: Staphylococcus aureus MRSA KS8, read-out: MIC
In short: as §1

MRSA KS1 = assay: MIC, broth microdilution, MRSA KS1; assay type: cell-based, Staphylococcus aureus; conditions: for MIC-fold improvement vs. vancomycin: MRSA KS1, ratio of MIC of vancomycin and MIC of analogue; for MIC: Staphylococcus aureus MRSA KS1, read-out: MIC
In short: as §1

Row | MIC (E. faecalis VSE 1) [µM] | MIC-fold improvement vs. vancomycin (E. faecalis VSE 1) | MIC (E. faecalis VRE 6) [µM] | MIC-fold improvement vs. vancomycin (E. faecalis VRE 6) | MIC (E. faecalis VRE 53) [µM] | MIC-fold improvement vs. vancomycin (E. faecalis VRE 53) | MIC (E. faecalis VRE 29) [µM] | MIC-fold improvement vs. vancomycin (E. faecalis VRE 29) | MIC (E. faecalis VRE 37) [µM] | MIC [5] [µM] | MIC-fold improvement vs. vancomycin [5] | MIC (S. aureus VISA/HIP5827) [µM] | MIC-fold improvement vs. vancomycin (S. aureus VISA/HIP5827) | MIC (S. aureus VRSA) [µM] | MIC-fold improvement vs. vancomycin (S. aureus VRSA) | MIC-fold improvement vs. vancomycin (MRSA KS2) | SMILES | IC50 [1] [µM] | IC50 [2] [µM] | IC50 [3] [µM] | IC50 [4] [µM] | also measured
1 | 0.39 (≈ 0.677 µg/mL) | 4 | 12.5 (≈ 21.7 µg/mL) | 16 | 12.5 (≈ 21.7 µg/mL) | 32 | 12.5 (≈ 21.7 µg/mL) | 32 | 25 (≈ 43.4 µg/mL) | 0.39 (≈ 0.677 µg/mL) | 2 | 0.78 (≈ 1.35 µg/mL) | 8 | 0.39 (≈ 0.677 µg/mL) | 256 | 2 | CN[C@H](CC(C)C)C(=O)N[C@H]1C(=O)N[C@@H](CC(N)=O)C(=O)N[C@H]2C(=O)N[C@H]3C(=O)N[C@H](C(=O)N[C@H](C(=O)NCC(=O)Nc4ccc(NS(=O)(=O)c5ccccc5)cc4)c4cc(O)cc(O)c4-c4cc3ccc4O)[C@H](O)c3ccc(c(Cl)c3)Oc3cc2cc(c3O[C@@H]2O[C@H](CO)[C@@H](O)[C@H](O)[C@H]2O[C@H]2C[C@](C)(N)[C@H](O)[C@H](C)O2)Oc2ccc(cc2Cl)[C@H]1O [Vanc-60] | > 250 | 219 ± 44 | 75 ± 29 | 181 | MIC-fold improvement vs. vancomycin (E. faecalis VRE 37; VRE 37, ratio of MIC of vancomycin and MIC of analogue): 16; MIC (MRSA KS2): 0.39 µM (≈ 0.677 µg/mL); MIC-fold improvement vs. vancomycin (MRSA KS6): 1; MIC (MRSA KS6): 0.78 µM (≈ 1.35 µg/mL); MIC-fold improvement vs. vancomycin (MRSA KS89): 2; MIC (MRSA KS89): 0.39 µM (≈ 0.677 µg/mL); MIC-fold improvement vs. vancomycin (MRSA KS1): 2; MIC (MRSA KS1): 0.39 µM (≈ 0.677 µg/mL)
2 | 0.39 (≈ 0.704 µg/mL) | 4 | 3.13 (≈ 5.65 µg/mL) | 64 | 6.25 (≈ 11.3 µg/mL) | 64 | 6.25 (≈ 11.3 µg/mL) | 64 | 12.5 (≈ 22.6 µg/mL) | 0.20 (≈ 0.361 µg/mL) | 4 | 0.78 (≈ 1.41 µg/mL) | 8 | 0.39 (≈ 0.704 µg/mL) | 256 | 4 | CN[C@H](CC(C)C)C(=O)N[C@H]1C(=O)N[C@@H](CC(N)=O)C(=O)N[C@H]2C(=O)N[C@H]3C(=O)N[C@H](C(=O)N[C@H](C(=O)NCC(=O)Nc4ccc(NS(=O)(=O)c5ccc(Cl)cc5Cl)cc4)c4cc(O)cc(O)c4-c4cc3ccc4O)[C@H](O)c3ccc(c(Cl)c3)Oc3cc2cc(c3O[C@@H]2O[C@H](CO)[C@@H](O)[C@H](O)[C@H]2O[C@H]2C[C@](C)(N)[C@H](O)[C@H](C)O2)Oc2ccc(cc2Cl)[C@H]1O [Vanc-61] | ≥ 250 | ≥ 250 | 87 ± 37 | 196 | MIC (MRSA KS2): 0.20 µM (≈ 0.361 µg/mL); MIC-fold improvement vs. vancomycin (MRSA KS6): 2; MIC (MRSA KS6): 0.39 µM (≈ 0.704 µg/mL); MIC-fold improvement vs. vancomycin (MRSA KS89): 2; MIC (MRSA KS89): 0.39 µM (≈ 0.704 µg/mL); MIC-fold improvement vs. vancomycin (MRSA KS1): 2; MIC (MRSA KS1): 0.39 µM (≈ 0.704 µg/mL)
